According to patent US20210330821A1, “METHODS OF MAKING PROSTATE CANCER TREATMENT DECISIONS” (priority 2018, published 2021):

Test: OSPREY safety: drug-related adverse events after 18F-DCFPyL
Format: in vivo, human
Procedure: The coprimary endpoints of sensitivity and specificity of ^18F-DCFPyL PET/CT for detecting pelvic lymph node metastases were evaluated in Cohort A. Secondary endpoints included safety in both cohorts, positive predictive value (PPV) and negative predictive value (NPV) in Cohort A, and sensitivity and PPV in Cohort B. Three central, blinded, and independent readers evaluated the ^18F-DCFPyL scans. Histopathology served as the reference standard to which imaging findings were compared. FIG. 1 provides information regarding the study design and cohorts.
Co-primary endpoints of specificity and sensitivity of ^18F-DCFPyL PET/CT for detecting prostate cancer metastases in pelvic lymph nodes were evaluated in Cohort A. Key secondary endpoints included incidence of adverse events, positive predictive value (PPV) and negative predictive value (NPV) of ^18F-DCFPyL PET/CT imaging to detect pelvic lymph node metastases in Cohort A, sensitivity and PPV of ^18F-DCFPyL PET/CT imaging to detect prostate cancer within sites of metastasis or recurrence in Cohort B. Three central, blinded, and independent readers evaluated the ^18F-DCFPyL scans. Imaging findings were compared to histopathology as the truth standard.
Pts underwent image-guided biopsy.

Structure (SMILES): O=C(O)CC[C@H](NC(=O)N[C@@H](CCCCNC(=O)c1ccc([18F])nc1)C(=O)O)C(=O)O [18F-DCFPyL]
- Cohort B pts who experienced ≥1 drug-related AE (Cohort B, 117 men, dysgeusia and generalized rash): 1.7%
- Severity of drug-related AEs (Cohort B, dysgeusia and generalized rash): mild (Grade 1)
- Dysgeusia (drug-related adverse event) (both cohorts): 2.1%
- Headache (drug-related adverse event) (both cohorts): 2.1%
- Drug-related serious adverse events (both cohorts, 385 men): No drug-related serious adverse events were observed
- Men who experienced ≥1 drug-related adverse event (both cohorts, 385 men): 7.0%
- Tolerability (patients with PCa, OSPREY): generally well tolerated
